26 compounds from ChEMBL document CHEMBL5241065, “If small molecules immunotherapy comes, can the prime be far behind?” (Eur J Med Chem, 2021) can be followed below.

The target in test [1] is T1, Tyrosine-protein phosphatase non-receptor type 11 (Homo sapiens, UniProt Q06124).
T1 sequence (Q06124 whole entry): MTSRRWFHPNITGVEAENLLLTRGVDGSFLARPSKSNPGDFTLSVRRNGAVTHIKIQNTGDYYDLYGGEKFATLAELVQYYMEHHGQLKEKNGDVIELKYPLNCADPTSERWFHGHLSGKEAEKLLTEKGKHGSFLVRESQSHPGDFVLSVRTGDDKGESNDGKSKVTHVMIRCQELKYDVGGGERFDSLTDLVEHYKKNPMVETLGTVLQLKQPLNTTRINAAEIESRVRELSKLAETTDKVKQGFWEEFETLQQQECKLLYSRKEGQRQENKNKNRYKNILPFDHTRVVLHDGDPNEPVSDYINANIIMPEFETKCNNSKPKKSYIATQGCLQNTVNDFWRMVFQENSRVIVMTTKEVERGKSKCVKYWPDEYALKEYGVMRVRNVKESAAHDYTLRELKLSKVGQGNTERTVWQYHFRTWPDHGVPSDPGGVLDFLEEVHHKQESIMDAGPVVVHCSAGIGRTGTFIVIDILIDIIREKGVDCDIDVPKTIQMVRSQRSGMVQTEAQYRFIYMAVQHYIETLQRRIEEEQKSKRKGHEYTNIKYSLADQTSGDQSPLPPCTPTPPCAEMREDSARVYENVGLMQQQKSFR
Put plainly: Inhibition of SHP (unknown origin).

For test [2], the target named is T2, Tyrosine-protein phosphatase non-receptor type 1 (Homo sapiens, UniProt P18031).
T2 sequence (P18031 whole entry): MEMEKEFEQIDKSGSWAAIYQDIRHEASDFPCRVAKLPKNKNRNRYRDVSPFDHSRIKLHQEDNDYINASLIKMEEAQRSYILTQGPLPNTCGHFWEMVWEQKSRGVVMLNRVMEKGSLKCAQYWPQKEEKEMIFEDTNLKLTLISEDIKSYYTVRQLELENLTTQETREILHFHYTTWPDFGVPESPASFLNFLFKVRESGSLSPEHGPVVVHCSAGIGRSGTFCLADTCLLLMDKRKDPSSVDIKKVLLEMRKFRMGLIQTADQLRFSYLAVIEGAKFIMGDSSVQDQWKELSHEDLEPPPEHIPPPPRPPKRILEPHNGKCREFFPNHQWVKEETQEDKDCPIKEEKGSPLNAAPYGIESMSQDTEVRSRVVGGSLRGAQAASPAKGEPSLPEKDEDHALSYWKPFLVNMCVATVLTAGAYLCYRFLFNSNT

Test [3] deals with Tyrosine-protein phosphatase non-receptor type 6 (Homo sapiens, UniProt P29350).
Tyrosine-protein phosphatase non-receptor type 6, sequence (P29350 whole entry): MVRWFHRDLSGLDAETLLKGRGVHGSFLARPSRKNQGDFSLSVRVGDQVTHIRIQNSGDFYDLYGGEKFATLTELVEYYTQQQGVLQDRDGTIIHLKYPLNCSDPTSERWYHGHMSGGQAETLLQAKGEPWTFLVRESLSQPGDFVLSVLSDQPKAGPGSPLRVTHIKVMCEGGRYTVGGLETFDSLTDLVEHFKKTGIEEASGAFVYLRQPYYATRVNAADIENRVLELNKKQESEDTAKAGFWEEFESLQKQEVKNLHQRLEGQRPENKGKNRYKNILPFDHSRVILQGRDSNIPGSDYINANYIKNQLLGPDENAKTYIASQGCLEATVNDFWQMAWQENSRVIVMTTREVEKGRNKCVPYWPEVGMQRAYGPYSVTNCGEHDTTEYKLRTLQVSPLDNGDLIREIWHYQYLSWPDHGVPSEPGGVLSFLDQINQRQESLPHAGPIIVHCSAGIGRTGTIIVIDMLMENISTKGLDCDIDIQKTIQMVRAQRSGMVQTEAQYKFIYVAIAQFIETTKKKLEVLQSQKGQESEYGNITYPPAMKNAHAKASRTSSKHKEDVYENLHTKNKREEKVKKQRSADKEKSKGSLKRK
Test [4] addresses T1, Tyrosine-protein phosphatase non-receptor type 11.
For test [5] the target is unchanged. This is another data set of the same source.
The target in test [6] is T3, Arginase-1 (Homo sapiens, UniProt P05089).
T3 sequence (P05089 whole entry): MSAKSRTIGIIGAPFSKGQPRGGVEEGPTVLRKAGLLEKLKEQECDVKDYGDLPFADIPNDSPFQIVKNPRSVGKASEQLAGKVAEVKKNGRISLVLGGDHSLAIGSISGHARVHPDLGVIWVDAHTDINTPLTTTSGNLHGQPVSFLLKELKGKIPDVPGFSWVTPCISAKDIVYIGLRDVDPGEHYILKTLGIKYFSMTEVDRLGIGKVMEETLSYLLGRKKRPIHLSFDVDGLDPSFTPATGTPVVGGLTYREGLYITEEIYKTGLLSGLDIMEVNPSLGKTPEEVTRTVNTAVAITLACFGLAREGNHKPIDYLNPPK

Test [7] addresses T4, Arginase-2, mitochondrial (Homo sapiens, UniProt P78540).
T4 sequence (P78540 whole entry): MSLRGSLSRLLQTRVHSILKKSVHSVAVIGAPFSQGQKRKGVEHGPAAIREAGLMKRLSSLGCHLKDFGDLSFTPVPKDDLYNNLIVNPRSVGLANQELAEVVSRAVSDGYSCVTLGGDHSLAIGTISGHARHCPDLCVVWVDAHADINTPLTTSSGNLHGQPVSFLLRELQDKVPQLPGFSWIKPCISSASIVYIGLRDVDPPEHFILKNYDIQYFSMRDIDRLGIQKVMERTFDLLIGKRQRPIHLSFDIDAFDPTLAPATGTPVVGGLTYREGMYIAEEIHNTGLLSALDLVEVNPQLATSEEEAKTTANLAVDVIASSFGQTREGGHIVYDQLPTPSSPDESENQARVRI

Test [8] deals with T3, Arginase-1. Put plainly: Inhibition of recombinant human ARG1 expressed in Escherichia coli using L-arginine hydrochloride as substrate incubated for 1 hr by colorimetric assay.
The nature of test [9]: Binding affinity to A2aR (unknown origin). Set-up: species or system Homo sapiens.
For test [10], the target named is T4, Arginase-2, mitochondrial. In words: Inhibition of recombinant human ARG2 expressed in Escherichia coli using L-arginine hydrochloride as substrate incubated for 1 hr by colorimetric assay.
Test [11] deals with T1, Tyrosine-protein phosphatase non-receptor type 11. The source holds these as a separate data set.
The target is the same in test [12]. Put plainly: Inhibition of SHP2 (unknown origin) at 100 mg/mL.
For test [13], the target named is T5, Arginase-1 (Mus musculus, UniProt Q61176).
T5 sequence (Q61176 whole entry): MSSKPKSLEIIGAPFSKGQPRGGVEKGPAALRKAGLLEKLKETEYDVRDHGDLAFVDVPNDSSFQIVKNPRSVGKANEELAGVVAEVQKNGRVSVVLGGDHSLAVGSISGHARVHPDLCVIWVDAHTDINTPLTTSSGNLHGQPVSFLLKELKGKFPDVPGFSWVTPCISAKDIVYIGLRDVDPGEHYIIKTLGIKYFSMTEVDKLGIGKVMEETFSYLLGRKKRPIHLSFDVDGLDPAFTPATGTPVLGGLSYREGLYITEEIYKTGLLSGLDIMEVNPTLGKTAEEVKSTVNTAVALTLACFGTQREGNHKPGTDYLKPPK
In words: Inhibition of mouse ARG1.

Test [14] in a line: Agonist activity at IFNalpha (unknown origin). Details: species or system Homo sapiens.
Test [15] can be described thus: Agonist activity at TNFalpha (unknown origin). Set-up: species or system Homo sapiens.
Another test deals with L929. Put plainly: cells. Conditions: Mus musculus.
The target in test [16] is T6, Stimulator of interferon genes protein (Homo sapiens, UniProt Q86WV6). Put plainly: Agonist activity at STING in human THP1-Dual cells assessed as increase in IFN-beta secretion incubated for 24 hrs. It is filed as cell-based, THP-1.
T6 sequence (Q86WV6 whole entry): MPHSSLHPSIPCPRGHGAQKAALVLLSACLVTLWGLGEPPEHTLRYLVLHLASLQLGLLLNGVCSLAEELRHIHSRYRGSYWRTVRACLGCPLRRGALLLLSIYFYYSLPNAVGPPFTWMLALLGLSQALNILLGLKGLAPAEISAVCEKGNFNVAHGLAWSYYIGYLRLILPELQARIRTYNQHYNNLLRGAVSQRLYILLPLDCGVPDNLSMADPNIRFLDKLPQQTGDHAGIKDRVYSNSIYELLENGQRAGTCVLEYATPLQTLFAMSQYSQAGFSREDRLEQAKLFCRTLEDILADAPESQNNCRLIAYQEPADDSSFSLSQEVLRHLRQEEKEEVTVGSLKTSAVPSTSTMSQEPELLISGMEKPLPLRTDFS
Test [17] addresses Tyrosine-protein kinase BTK (Homo sapiens, UniProt Q06187).
Test [18] concerns the target Tyrosine-protein phosphatase non-receptor type 11 (Homo sapiens, UniProt Q06124, E76K). Put plainly: Inhibition of SHP2 (unknown origin) E76K mutant.
For test [19], the target named is T6, Stimulator of interferon genes protein. Put plainly: Binding affinity to human STING assessed as dissociation constant by surface plasmon resonance.
Test [20] has as its target Tyrosine-protein phosphatase non-receptor type 11 (Homo sapiens, UniProt Q06124, Q257L/T253M). Put plainly: Inhibition of SHP2 T253M/Q257L mutant (unknown origin).
For test [21], the target named is Tyrosine-protein phosphatase non-receptor type 11 (Homo sapiens, UniProt Q06124). In words: Inhibition of SHP2 1-525 mutant (unknown origin).
Test [22] concerns the target Programmed cell death 1 ligand 1 (Homo sapiens, UniProt Q9NZQ7).

What is called IC50 is the midpoint of a concentration-inhibition curve. What is called Ki is the dissociation constant of the complex between target and ligand, obtained from inhibition or displacement. In general, pEC50 refers to the EC50 on a negative log10 scale, so that one unit is a factor of ten. A high value points to a small EC50. The term EC50 denotes the concentration needed to bring the measured effect to its halfway point. As a reminder, the Kd is a measure of binding affinity in units of concentration.

Programmed cell death 1 ligand 1, sequence (Q9NZQ7 whole entry): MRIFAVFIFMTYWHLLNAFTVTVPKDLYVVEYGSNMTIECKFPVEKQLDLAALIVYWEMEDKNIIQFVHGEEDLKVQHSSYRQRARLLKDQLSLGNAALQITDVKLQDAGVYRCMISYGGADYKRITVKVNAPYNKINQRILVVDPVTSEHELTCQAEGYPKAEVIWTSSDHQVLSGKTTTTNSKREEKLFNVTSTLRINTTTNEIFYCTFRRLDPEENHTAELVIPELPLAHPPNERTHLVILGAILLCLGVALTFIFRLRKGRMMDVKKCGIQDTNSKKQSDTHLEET
Tyrosine-protein phosphatase non-receptor type 11 (Homo sapiens, UniProt Q06124, Q257L/T253M), sequence (Q06124 2-593 T253M/Q257L limits assumed): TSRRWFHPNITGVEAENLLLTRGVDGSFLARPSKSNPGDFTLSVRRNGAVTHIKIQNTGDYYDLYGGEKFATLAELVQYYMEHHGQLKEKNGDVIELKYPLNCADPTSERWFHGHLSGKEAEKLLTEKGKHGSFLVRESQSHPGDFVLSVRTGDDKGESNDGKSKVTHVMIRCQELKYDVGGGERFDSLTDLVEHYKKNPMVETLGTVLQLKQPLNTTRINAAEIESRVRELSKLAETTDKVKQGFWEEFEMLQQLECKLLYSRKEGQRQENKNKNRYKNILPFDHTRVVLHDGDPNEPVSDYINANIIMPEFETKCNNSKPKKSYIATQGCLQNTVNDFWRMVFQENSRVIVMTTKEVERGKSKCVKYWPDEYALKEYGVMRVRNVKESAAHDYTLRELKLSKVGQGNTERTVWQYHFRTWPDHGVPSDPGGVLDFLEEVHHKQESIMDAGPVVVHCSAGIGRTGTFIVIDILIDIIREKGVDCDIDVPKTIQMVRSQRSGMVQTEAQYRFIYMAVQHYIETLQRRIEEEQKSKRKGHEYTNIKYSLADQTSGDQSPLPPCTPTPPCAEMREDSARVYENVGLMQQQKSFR
Tyrosine-protein phosphatase non-receptor type 11 (Homo sapiens, UniProt Q06124, E76K), sequence (Q06124 2-593 E76K limits assumed): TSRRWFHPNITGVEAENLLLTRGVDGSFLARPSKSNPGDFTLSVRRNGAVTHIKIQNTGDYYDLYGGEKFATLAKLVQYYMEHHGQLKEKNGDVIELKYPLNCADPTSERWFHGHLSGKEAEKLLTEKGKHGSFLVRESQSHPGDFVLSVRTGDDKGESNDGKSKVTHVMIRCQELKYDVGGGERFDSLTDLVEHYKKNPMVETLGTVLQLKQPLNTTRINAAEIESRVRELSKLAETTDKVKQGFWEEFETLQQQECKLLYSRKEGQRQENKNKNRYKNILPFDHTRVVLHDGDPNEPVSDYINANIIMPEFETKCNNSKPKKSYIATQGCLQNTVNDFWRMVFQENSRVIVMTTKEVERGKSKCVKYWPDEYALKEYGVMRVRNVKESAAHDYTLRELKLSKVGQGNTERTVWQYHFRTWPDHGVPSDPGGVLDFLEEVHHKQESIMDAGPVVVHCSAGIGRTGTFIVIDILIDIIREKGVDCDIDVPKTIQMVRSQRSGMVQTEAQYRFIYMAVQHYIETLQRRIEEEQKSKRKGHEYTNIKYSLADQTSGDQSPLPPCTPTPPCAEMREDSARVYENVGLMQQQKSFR
Tyrosine-protein kinase BTK, sequence (Q06187 whole entry): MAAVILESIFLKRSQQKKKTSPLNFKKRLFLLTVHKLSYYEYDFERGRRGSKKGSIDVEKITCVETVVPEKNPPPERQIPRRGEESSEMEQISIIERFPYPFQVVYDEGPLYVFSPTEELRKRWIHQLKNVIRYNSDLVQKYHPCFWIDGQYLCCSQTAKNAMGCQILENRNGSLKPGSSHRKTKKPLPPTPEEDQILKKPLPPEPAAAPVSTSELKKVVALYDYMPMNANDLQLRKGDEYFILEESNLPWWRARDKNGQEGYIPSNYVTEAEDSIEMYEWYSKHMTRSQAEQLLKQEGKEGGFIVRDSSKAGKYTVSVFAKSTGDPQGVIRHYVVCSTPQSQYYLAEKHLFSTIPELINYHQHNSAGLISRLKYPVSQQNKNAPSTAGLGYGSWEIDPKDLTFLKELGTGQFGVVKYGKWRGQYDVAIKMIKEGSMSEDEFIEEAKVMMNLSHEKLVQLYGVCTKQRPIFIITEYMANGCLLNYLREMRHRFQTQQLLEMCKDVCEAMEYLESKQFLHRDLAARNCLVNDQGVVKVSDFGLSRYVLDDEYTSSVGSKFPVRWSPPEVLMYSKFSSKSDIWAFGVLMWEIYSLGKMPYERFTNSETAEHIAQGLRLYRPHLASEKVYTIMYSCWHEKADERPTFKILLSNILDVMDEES

Take `Cc1nc(N2CCC(C)(N)CC2)c(CO)nc1-c1cccc(Cl)c1Cl`: the 50% inhibitory concentration (IC50) in [1] came to 71 nM.
Consider `O=C1/C(=N\Nc2ccc(S(=O)(=O)O)cc2)C(c2ccc([N+](=O)[O-])cc2)NN1c1ccccc1` (centres undefined), for which the values for the IC50 in test [2], in test [3] and in [4] were 14500 nM, 30000 nM and 30000 nM, respectively.
For the compound `O=C1Nc2cc(S(=O)(=O)O)ccc2C1/N=N/c1ccccc1[N+](=O)[O-]` (centres undefined), the IC50 in test [5] and in [4] was 47000 nM throughout.
As to `O=S(=O)(O)c1ccc2cc(/N=N/c3cc(S(=O)(=O)O)c4cccnc4c3O)ccc2c1`, the IC50 in [2] was found to be 14300 nM; in test [3], 335 nM.
In test [2], `O=C1Nc2ccc(S(=O)(=O)NCc3ccc(F)cc3)cc2/C1=N/Nc1cccc(C(=O)O)c1` showed a concentration for half-maximal inhibition (IC50) of 1690 nM.
Consider `N[C@@H](CCCCB(O)O)C(=O)O`, for which the IC50 is 5 nM against Arginase-1 [6] and 8.5 nM in [7].
On to `N=C(NO)NCCC[C@H](N)C(=O)O`, for which the IC50 turned out to be 3600 nM on Arginase-1 [6], 150 nM on Arginase-1 [8] and 1600 nM in [7].
For `Nc1nc(-n2cccn2)nc(-n2cccn2)c1Br` [PBF-509], the affinity in test [9], expressed as Ki, was 8.2 nM.
For `NC(CCCCB(O)O)(C(=O)O)C1CCN(Cc2ccc(Cl)cc2Cl)CC1` (centres undefined), the IC50 on Arginase-1 [8] is 86 nM; in [10] it was 296 nM.
On to `C[C@@H]1OCC2(CCN(c3nc(N)c(Sc4cccnc4C(F)(F)F)c(=O)n3O)CC2)[C@@H]1N`, for which the IC50 in [11] and in [1] was 23 nM each time.
As to `COC(=O)c1cccc(N/N=C2\C(=O)Nc3ccc(S(=O)(=O)NCc4ccc(F)cc4)cc32)c1`, the IC50 in test [12] was greater than 100000 nM.
Take `N[C@@H](CSCCB(O)O)C(=O)O`: the IC50 on Arginase-1 [6] is 270 nM; in test [7], 30 nM.
Regarding `Cn1cc(-c2cn(CC(=O)Nc3nc4ccccc4s3)nn2)c2cc(C(=O)O)c(O)cc21`, the half-maximal inhibitory concentration (IC50) came to 2100 nM in test [2], 15700 nM in test [3] and 5500 nM in [4].
As to `CCOC(=O)c1ccc(N2NC(c3ccc([N+](=O)[O-])cc3)/C(=N/Nc3ccc(S(=O)(=O)O)cc3)C2=O)cc1` (centres undefined), the values for the 50% inhibitory concentration (IC50) in [2], in test [3] and in test [4] were 19000 nM, 1800 nM and 630 nM, respectively.
In turn, `OC[C@H]1O[C@H](Oc2cc(/C=C/c3cc(O)cc(O)c3)ccc2O)[C@H](O)[C@@H](O)[C@@H]1O` showed an IC50 at Arginase-1 [13] of 11200 nM.
With `CCC[C@H](C)Oc1nc(N)c2[nH]c(=O)n(CCCCCN3CCCCC3)c2n1` [GSK-2245035], the pEC50 is reported as 9.3 in test [14] and 6.5 in test [15].
For the compound `N[C@](CCCCB(O)O)(CCN1CCCCC1)C(=O)O`, the half-maximal inhibitory concentration (IC50) at Arginase-1 [8] was 509 nM.
Consider `NC1=NC2C(N=CN2[C@@H]2O[C@@H]3COP(=O)(O)O[C@H]4[C@@H](O)[C@H](N5C=NC6C(=O)NC(N)=NC65)O[C@@H]4COP(=O)(O)O[C@H]3[C@H]2O)C(=O)N1` (some centres undefined), for which the EC50 in the test on L929 was greater than 500 nM.
With `N[C@@](CCCCB(O)O)(C(=O)O)C1CCN(Cc2ccc(Cl)c(Cl)c2)CC1`, the concentration for half-maximal inhibition (IC50) worked out at 200 nM on Arginase-1 [8] and 290 nM in test [10].
Regarding `CCn1nc(C)cc1C(=O)/C=C1\Nc2cc(C(N)=O)cc(CCCN3CCOCC3)c2N1C/C=C/CN1/C(=C/C(=O)c2cc(C)nn2CC)Nc2cc(C(N)=O)cc(OC)c21`, in test [16], the 50% effective concentration (EC50) stood at 130 nM.
`Cc1c(-c2c(F)cc(C(N)=O)c3[nH]c4c(c23)CC[C@H](C(C)(C)O)C4)cccc1N1C(=O)c2cccc(F)c2C(C)C1=O` (some centres undefined): 0.5 nM corresponded to half-maximal inhibition in test [17] (IC50).
For the compound `N=C(NO)NCC[C@H](N)C(=O)O` [NOR-NOHA], the half-inhibitory concentration (IC50) in test [7] came to 51 nM.
As for `CCOc1cc(O)c(C(=O)/C=C/c2ccc(Cl)cc2Cl)cc1CN1CCC=C(C2C(=O)Nc3ccccc32)C1` (centres undefined), the IC50 in test [11] turned out to be 9.8 nM; in [18], 7670 nM.
Regarding `COc1c(O)cc2oc3cc(O)c(CC=C(C)C)c(O)c3c(=O)c2c1CC=C(C)C` [MANGOSTIN], in test [19], the Kd turned out to be 137000 nM.
For `COc1cccc(-c2nnc3n(Cc4ccccc4Cl)c(=O)c4ccccc4n23)c1O`, the 50% inhibitory concentration (IC50) in test [20] and in test [21] was 60000 nM each time.
`N#Cc1cncc(COc2cc(OC3CCc4c(-c5ccccc5)cccc43)c(Cl)cc2CN[C@@H](CO)C(=O)O)c1` (some centres undefined) gave a 50% inhibitory concentration (IC50) in test [22] of less than 100 nM.
